This is an account of results in patent US11702422B2, “Imidazopyridazines as modulators of IL-17” (Janssen Pharmaceutica NV, priority 2020, dated 2023).

For assay [1], the target named is IL-17A(FLAG-Tagged): IL-17RA(His-Tagged) (Homo sapiens, UniProt Q16552, K93Q). Description: IL-17A(FLAG-Tagged): IL-17RA(His-Tagged) Binding Disruption Eu-HTRF Assay. The conditions noted are these: IL-17A/IL-17RA binding disruption, simple average if tested more than once. Put shortly:
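IC50 comes from a one-site competition fit of the HTRF 665/620 nm ratio. Compound dilutions (2-fold, 22 points) were held 1 h rt with FLAG-tagged IL-17A dimer, then His-tagged IL-17RA plus Eu-cryptate anti-FLAG and D2 anti-His antibodies were added for 2 h rt.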
(TR-FRET usually uses a lanthanide donor and a delayed reading to cut background.)

Assay [2] deals with IL-17A-induced G-CSF production in human normal keratinocyte (NHK). Description: NHK Assay: IL-17A-induced G-CSF production in human normal keratinocytes. In kind it is cell-based. The settings on record: adult normal human keratinocytes, IL-17A 5 ng/mL, 24 h, simple average if tested more than once. An outline of the steps:
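Adult normal human keratinocytes were seeded at 3000-4000 cells/well. Recombinant human IL-17A was pre-incubated 1 h at rt with titrated compound, then added to cells (final 5 ng/mL IL-17A, 0.2% DMSO, 5% FBS) for 24 h at 37° C. Supernatant G-CSF was measured by HTRF against a standard curve to give IC50.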

UniProt Q16552, sequence (Q16552 with tags, fused parts or gaps K93Q): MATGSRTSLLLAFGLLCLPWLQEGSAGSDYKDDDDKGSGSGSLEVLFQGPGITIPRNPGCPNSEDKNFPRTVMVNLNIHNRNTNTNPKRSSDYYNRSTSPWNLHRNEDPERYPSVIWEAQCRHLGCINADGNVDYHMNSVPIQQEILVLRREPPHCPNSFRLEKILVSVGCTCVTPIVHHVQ

The term IC50 denotes the concentration that inhibits the measured activity by half. Read a low IC50 as greater potency in that assay. In the case of `Cc1nonc1C(=O)N[C@@H](COC(C)(C)C)c1cn2ncc(C(NC(=O)CCC(F)(F)F)C3CC3)cc2n1` (single isomer, unassigned) [Example 314, N—((R)-2-(tert-Butoxy)-1-(7-((R*)-cyclopropyl(4,4,4-trifluorobutanamido)methyl)imidazo[1,2-b]pyridazin-2-yl)ethyl)-4-methyl-1,2,5-oxadiazole-3-carboxamide], the IC50 was 560 nM in assay [1] and 2100 nM in assay [2].
`Cc1nonc1C(=O)N[C@@H](COC(C)(C)C)c1cn2ncc(C(NC(=O)CCC(F)(F)F)C3CC3)cc2n1` (single isomer, unassigned) [Example 315, N—((R)-2-(tert-Butoxy)-1-(7-((S*)-cyclopropyl(4,4,4-trifluorobutanamido)methyl)imidazo[1,2-b]pyridazin-2-yl)ethyl)-4-methyl-1,2,5-oxadiazole-3-carboxamide]: the values for the IC50 in assay [1] and in assay [2] were 13000 nM and greater than 20000 nM, respectively.
For the compound `CC(C)n1nccc1C(=O)N[C@@H](COC(C)(C)C)c1cn2ncc(C(NC(=O)CCC(F)(F)F)C3CC3)cc2n1` (single isomer, unassigned) [Example 316, N—((R)-2-(tert-Butoxy)-1-(7-((R*)-cyclopropyl(4,4,4-trifluorobutanamido)methyl)imidazo[1,2-b]pyridazin-2-yl)ethyl)-1-isopropyl-1H-pyrazole-5-carboxamide], the IC50 in assay [1] was 240 nM; in assay [2] it was 700 nM.
As for `CC(C)n1nccc1C(=O)N[C@@H](COC(C)(C)C)c1cn2ncc(C(NC(=O)CCC(F)(F)F)C3CC3)cc2n1` (single isomer, unassigned) [Example 317, N—((R)-2-(tert-Butoxy)-1-(7-((S*)-cyclopropyl(4,4,4-trifluorobutanamido)methyl)imidazo[1,2-b]pyridazin-2-yl)ethyl)-1-isopropyl-1H-pyrazole-5-carboxamide], the results for the IC50 in assay [1] and in assay [2] were 9900 nM and greater than 20000 nM, respectively.
For the compound `Cc1nonc1C(=O)N[C@H](c1cn2ncc([C@H](NC(=O)CC3CC(F)(F)C3(F)F)C3CC3)cc2n1)C1CCC(F)(F)CC1` (single isomer, unassigned) [Example 324, N—((S)-(7-((R)-Cyclopropyl(2-((R*)-2,2,3,3-tetrafluorocyclobutyl)acetamido)methyl)imidazo[1,2-b]pyridazin-2-yl)(4,4-difluorocyclohexyl)methyl)-4-methyl-1,2,5-oxadiazole-3-carboxamide], the IC50 turned out to be 61 nM in assay [1] and 300 nM in assay [2] (Homo sapiens, Keratinocyte).
Consider `Cc1nonc1C(=O)N[C@H](c1cn2ncc([C@H](NC(=O)CC3CC(F)(F)C3(F)F)C3CC3)cc2n1)C1CCC(F)(F)CC1` (single isomer, unassigned) [Example 325, N—((S)-(7-((R)-Cyclopropyl(2-((S*)-2,2,3,3-tetrafluorocyclobutyl)acetamido)methyl)imidazo[1,2-b]pyridazin-2-yl)(4,4-difluorocyclohexyl)methyl)-4-methyl-1,2,5-oxadiazole-3-carboxamide], for which the IC50 is 91 nM in assay [1] and 300 nM in assay [2].
With `Cc1nonc1C(=O)N[C@H](c1cn2ncc([C@H](NC(=O)C(C)CC(F)F)C3CC3)cc2n1)C1CCC(F)(F)CC1` (single isomer, unassigned) [Example 329, N—((S)-(7-((R)-Cyclopropyl((S*)-4,4-difluoro-2-methylbutanamido)methyl)imidazo[1,2-b]pyridazin-2-yl)(4,4-difluorocyclohexyl)methyl)-4-methyl-1,2,5-oxadiazole-3-carboxamide], the IC50 in assay [1] was found to be 930 nM; in assay [2] (Homo sapiens, Keratinocyte), 2200 nM.
Regarding `Cc1nonc1C(=O)N[C@H](c1cn2ncc([C@H](NC(=O)C(C)CC(F)F)C3CC3)cc2n1)C1CCC(F)(F)CC1` (single isomer, unassigned) [Example 330, N—((S)-(7-((R)-Cyclopropyl((R*)-4,4-difluoro-2-methylbutanamido)methyl)imidazo[1,2-b]pyridazin-2-yl)(4,4-difluorocyclohexyl)methyl)-4-methyl-1,2,5-oxadiazole-3-carboxamide], the IC50 in assay [1] amounted to 560 nM; in assay [2] it was 2200 nM.
Regarding `Cc1nonc1C(=O)N[C@H](c1cn2ncc([C@H](NC(=O)C(F)C3CC3)C3CC3)cc2n1)C1CCC(F)(F)CC1` (single isomer, unassigned) [Example 331, N—((S)-(7-((R)-Cyclopropyl((R*)-2-cyclopropyl-2-fluoroacetamido)methyl)imidazo[1,2-b]pyridazin-2-yl)(4,4-difluorocyclohexyl)methyl)-4-methyl-1,2,5-oxadiazole-3-carboxamide], the IC50 in assay [1] amounted to 310 nM; in assay [2] it was 1500 nM.
As for `Cc1nonc1C(=O)N[C@H](c1cn2ncc([C@H](NC(=O)C(F)C3CC3)C3CC3)cc2n1)C1CCC(F)(F)CC1` (single isomer, unassigned) [Example 332, N—((S)-(7-((R)-Cyclopropyl((S*)-2-cyclopropyl-2-fluoroacetamido)methyl)imidazo[1,2-b]pyridazin-2-yl)(4,4-difluorocyclohexyl)methyl)-4-methyl-1,2,5-oxadiazole-3-carboxamide], the IC50 came to 1500 nM in assay [1] and 12000 nM in assay [2].
The like results for `CCC(CC(=O)N[C@@H](c1cnn2cc([C@@H](NC(=O)c3nonc3C)C3CCC(F)(F)CC3)nc2c1)C1CC1)CC(F)(F)F` (single isomer, unassigned) [Example 342, N—((S)-(7-((R)-Cyclopropyl((R*)-3-ethyl-5,5,5-trifluoropentanamido)methyl)imidazo[1,2-b]pyridazin-2-yl)(4,4-difluorocyclohexyl)methyl)-4-methyl-1,2,5-oxadiazole-3-carboxamide] were, in that order, 340 nM and 1400 nM.
Regarding `CCC(CC(=O)N[C@@H](c1cnn2cc([C@@H](NC(=O)c3nonc3C)C3CCC(F)(F)CC3)nc2c1)C1CC1)CC(F)(F)F` (single isomer, unassigned) [Example 343, N—((S)-(7-((R)-Cyclopropyl((S*)-3-ethyl-5,5,5-trifluoropentanamido)methyl)imidazo[1,2-b]pyridazin-2-yl)(4,4-difluorocyclohexyl)methyl)-4-methyl-1,2,5-oxadiazole-3-carboxamide], the values for the IC50 in assay [1] and in assay [2] were 170 nM and 430 nM, respectively.
On to `Cc1nonc1C(=O)N[C@H](c1cn2ncc([C@H](NC(=O)C(F)CC3CC3)C3CC3)cc2n1)C1CCC(F)(F)CC1` (single isomer, unassigned) [Example 344, N—((S)-(7-((R)-Cyclopropyl((R*)-3-cyclopropyl-2-fluoropropanamido)methyl)imidazo[1,2-b]pyridazin-2-yl)(4,4-difluorocyclohexyl)methyl)-4-methyl-1,2,5-oxadiazole-3-carboxamide], for which the IC50 in assay [1] is 52 nM; in assay [2], 230 nM.
Consider `Cc1nonc1C(=O)N[C@H](c1cn2ncc([C@H](NC(=O)C(F)CC3CC3)C3CC3)cc2n1)C1CCC(F)(F)CC1` (single isomer, unassigned) [Example 345, N—((S)-(7-((R)-Cyclopropyl((S*)-3-cyclopropyl-2-fluoropropanamido)methyl)imidazo[1,2-b]pyridazin-2-yl)(4,4-difluorocyclohexyl)methyl)-4-methyl-1,2,5-oxadiazole-3-carboxamide], for which the values for the half-maximal inhibitory concentration (IC50) in assay [1] and in assay [2] were 180 nM and 670 nM, respectively.
